Experimental data published in ChEMBL document CHEMBL4387741, “Optimization of novel reversible Bruton's tyrosine kinase inhibitors identified using Tethering-fragment-based screens” (Bioorg Med Chem, 2019).

Legend:
[1] = biological target: Cyclin-dependent kinase 14 (Homo sapiens) (UniProt O94921); assay: Inhibition of wild-type human full length PFTK1 (M1 to H451 residues) expressed in bacterial expression system at 1 uM by Kinomescan method relative to control
[2] = biological target: Dual specificity mitogen-activated protein kinase kinase 7 (Homo sapiens) (UniProt O14733); assay: Inhibition of wild-type human full length MKK7 (M1 to R419 residues) expressed in mammalian expression system at 1 uM by Kinomescan method relative to control
[3] = test system: Receptor-type tyrosine-protein kinase FLT3 (Homo sapiens), P36888 [UNDEFINED MUTATION]; assay: Inhibition of human partial length FLT3 ITD mutant expressed in bacterial expression system at 1 uM by Kinomescan method relative to control
[4] = biological target: Receptor-interacting serine/threonine-protein kinase 4 (Homo sapiens) (UniProt P57078); assay: Inhibition of wild-type human partial length RIPK4 (M1 to V303 residues) expressed in mammalian expression system at 1 uM by Kinomescan method relative to control
[5] = biological target: Mitogen-activated protein kinase kinase kinase 15 (Homo sapiens) (UniProt Q6ZN16); assay: Inhibition of wild-type human partial length MAP3K15 (T625 to L932 residues) expressed in mammalian expression system at 1 uM by Kinomescan method relative to control
[6] = biological target: Vascular endothelial growth factor receptor 1 (Homo sapiens) (UniProt P17948); assay: Inhibition of wild-type human partial length FLT1 (R781 to F1239 residues) expressed in bacterial expression system at 1 uM by Kinomescan method relative to control
[7] = biological target: Microtubule-associated serine/threonine-protein kinase 1 (Homo sapiens) (UniProt Q9Y2H9); assay: Inhibition of wild-type human partial length MAST1 (S346 to V730 residues) expressed in mammalian expression system at 1 uM by Kinomescan method relative to control
[8] = biological target: Calcium/calmodulin-dependent protein kinase type II subunit alpha (Homo sapiens) (UniProt Q9UQM7); assay: Inhibition of wild-type human partial length CAMK2A (M1 to K328 residues) expressed in bacterial expression system at 1 uM by Kinomescan method relative to control
[9] = biological target: Fibroblast growth factor receptor 3 (Homo sapiens) (UniProt P22607); assay: Inhibition of wild-type human partial length FGFR3 (R442 to S771 residues) expressed in bacterial expression system at 1 uM by Kinomescan method relative to control
[10] = biological target: Aurora kinase A (Homo sapiens) (UniProt O14965); assay: Inhibition of wild-type human partial length AURKA (E122 to K401 residues) expressed in mammalian expression system at 1 uM by Kinomescan method relative to control
[11] = biological target: Rho-associated protein kinase 1 (Homo sapiens) (UniProt Q13464); assay: Inhibition of wild-type human partial length ROCK1 (M1 to R415 residues) expressed in mammalian expression system at 1 uM by Kinomescan method relative to control
[12] = biological target: Vascular endothelial growth factor receptor 3 (Homo sapiens) (UniProt P35916); assay: Inhibition of wild-type human partial length FLT4 (E821 to E1196 residues) expressed in bacterial expression system at 1 uM by Kinomescan method relative to control
[13] = biological target: Receptor-interacting serine/threonine-protein kinase 2 (Homo sapiens) (UniProt O43353); assay: Inhibition of wild-type human partial length RIPK2 (M1 to K310 residues) expressed in bacterial expression system at 1 uM by Kinomescan method relative to control
[14] = biological target: Mitogen-activated protein kinase kinase kinase 3 (Homo sapiens) (UniProt Q99759); assay: Inhibition of wild-type human partial length MAP3K3 (E320 to Y626 residues) expressed in mammalian expression system at 1 uM by Kinomescan method relative to control
[15] = biological target: Serine/threonine-protein kinase PRP4 homolog (Homo sapiens) (UniProt Q13523); assay: Inhibition of wild-type human partial length PRP4 (D657 to I1007 residues) expressed in bacterial expression system at 1 uM by Kinomescan method relative to control
[16] = biological target: Serine/threonine-protein kinase RIO1 (Homo sapiens) (UniProt Q9BRS2); assay: Inhibition of wild-type human full length RIOK1 (M1 to K568 residues) expressed in bacterial expression system at 1 uM by Kinomescan method relative to control
[17] = biological target: cGMP-dependent protein kinase 2 (Homo sapiens) (UniProt Q13237); assay: Inhibition of wild-type human partial length PRKG2 (S422 to F762 residues) expressed in mammalian expression system at 1 uM by Kinomescan method relative to control
[18] = biological target: Protein-tyrosine kinase 6 (Homo sapiens) (UniProt Q13882); assay: Inhibition of wild-type human partial length BRK (L166 to T451 residues) expressed in bacterial expression system at 1 uM by Kinomescan method relative to control
[19] = biological target: Cyclin-dependent kinase 16 (Homo sapiens) (UniProt Q00536); assay: Inhibition of wild-type human partial length PCTK1 (G160 to A474 residues) expressed in mammalian expression system at 1 uM by Kinomescan method relative to control
[20] = biological target: Tyrosine-protein kinase JAK2 (Homo sapiens) (UniProt O60674); assay: Inhibition of wild-type human partial length JAK2 JH1 catalytic domain (A829 to G1132 residues) expressed in mammalian expression system at 10 uM by Kinomescan method relative to control
[21] = test system: Epidermal growth factor receptor (Homo sapiens), P00533 [L861Q]; assay: Inhibition of human partial length EGFR L861Q mutant (R669 to V1011 residues) expressed in bacterial expression system at 10 uM by Kinomescan method relative to control
[22] = biological target: BDNF/NT-3 growth factors receptor (Homo sapiens) (UniProt Q16620); assay: Inhibition of wild-type human partial length TRKB (Q547 to G838 residues) expressed in mammalian expression system at 10 uM by Kinomescan method relative to control
[23] = test system: Receptor-type tyrosine-protein kinase FLT3 (Homo sapiens), P36888 [R834Q]; assay: Inhibition of human partial length FLT3 R834Q mutant (V592 to Y969 residues) expressed in mammalian expression system at 10 uM by Kinomescan method relative to control
[24] = biological target: MAP kinase-interacting serine/threonine-protein kinase 2 (Homo sapiens) (UniProt Q9HBH9); assay: Inhibition of wild-type human partial length MKNK2 (G63 to S388 residues) expressed in mammalian expression system at 10 uM by Kinomescan method relative to control
[25] = biological target: Activated CDC42 kinase 1 (Homo sapiens) (UniProt Q07912); assay: Inhibition of wild-type human partial length TNK2 (S159 to D474 residues) expressed in bacterial expression system at 10 uM by Kinomescan method relative to control
[26] = biological target: Myotonin-protein kinase (Homo sapiens) (UniProt Q09013); assay: Inhibition of wild-type human partial length DMPK (V47 to V415 residues) expressed in bacterial expression system at 10 uM by Kinomescan method relative to control
[27] = test system: Tyrosine-protein kinase ABL1 (Homo sapiens), P00519 [H396P]; assay: Inhibition of human non-phosphorylated ABL1 H396P mutant (S229 to K512 residues) expressed in mammalian expression system at 10 uM by Kinomescan method relative to control

Sequence of Mitogen-activated protein kinase kinase kinase 15 (Homo sapiens) (Q6ZN16 whole entry, the tested form may be a part): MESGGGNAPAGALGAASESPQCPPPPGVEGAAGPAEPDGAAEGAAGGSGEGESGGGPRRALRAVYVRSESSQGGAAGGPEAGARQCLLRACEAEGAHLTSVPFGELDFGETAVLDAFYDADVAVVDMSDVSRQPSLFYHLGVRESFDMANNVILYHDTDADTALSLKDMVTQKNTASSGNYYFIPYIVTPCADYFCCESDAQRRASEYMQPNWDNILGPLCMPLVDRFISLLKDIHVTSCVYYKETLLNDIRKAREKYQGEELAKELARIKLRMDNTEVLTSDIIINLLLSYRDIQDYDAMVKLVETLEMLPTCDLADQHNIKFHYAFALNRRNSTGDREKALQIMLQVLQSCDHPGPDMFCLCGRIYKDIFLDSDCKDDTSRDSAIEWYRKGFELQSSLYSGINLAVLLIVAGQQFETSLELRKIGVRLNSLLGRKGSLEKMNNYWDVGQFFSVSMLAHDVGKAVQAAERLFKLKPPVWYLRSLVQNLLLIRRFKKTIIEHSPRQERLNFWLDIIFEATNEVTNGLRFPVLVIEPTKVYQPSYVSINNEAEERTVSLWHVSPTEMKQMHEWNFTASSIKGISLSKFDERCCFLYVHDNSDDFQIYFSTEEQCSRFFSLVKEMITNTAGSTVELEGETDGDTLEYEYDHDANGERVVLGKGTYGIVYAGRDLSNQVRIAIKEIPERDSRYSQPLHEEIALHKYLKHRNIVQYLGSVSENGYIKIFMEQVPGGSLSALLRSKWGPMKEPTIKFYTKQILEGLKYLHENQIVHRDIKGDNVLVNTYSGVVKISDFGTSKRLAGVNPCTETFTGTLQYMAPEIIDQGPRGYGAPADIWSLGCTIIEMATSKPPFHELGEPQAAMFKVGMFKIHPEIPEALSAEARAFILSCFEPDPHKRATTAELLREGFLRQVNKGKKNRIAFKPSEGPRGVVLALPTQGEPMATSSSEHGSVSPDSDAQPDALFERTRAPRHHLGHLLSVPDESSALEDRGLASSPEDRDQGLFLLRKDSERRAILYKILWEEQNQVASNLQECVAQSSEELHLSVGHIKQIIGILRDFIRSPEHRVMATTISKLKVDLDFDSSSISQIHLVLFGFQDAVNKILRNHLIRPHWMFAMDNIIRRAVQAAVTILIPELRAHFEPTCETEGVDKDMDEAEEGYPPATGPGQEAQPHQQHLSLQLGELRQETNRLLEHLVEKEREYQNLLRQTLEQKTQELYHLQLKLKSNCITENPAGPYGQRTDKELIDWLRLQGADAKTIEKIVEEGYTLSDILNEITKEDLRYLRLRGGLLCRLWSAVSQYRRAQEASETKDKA
Sequence of Receptor-interacting serine/threonine-protein kinase 2 (Homo sapiens) (O43353 whole entry, the tested form may be a part): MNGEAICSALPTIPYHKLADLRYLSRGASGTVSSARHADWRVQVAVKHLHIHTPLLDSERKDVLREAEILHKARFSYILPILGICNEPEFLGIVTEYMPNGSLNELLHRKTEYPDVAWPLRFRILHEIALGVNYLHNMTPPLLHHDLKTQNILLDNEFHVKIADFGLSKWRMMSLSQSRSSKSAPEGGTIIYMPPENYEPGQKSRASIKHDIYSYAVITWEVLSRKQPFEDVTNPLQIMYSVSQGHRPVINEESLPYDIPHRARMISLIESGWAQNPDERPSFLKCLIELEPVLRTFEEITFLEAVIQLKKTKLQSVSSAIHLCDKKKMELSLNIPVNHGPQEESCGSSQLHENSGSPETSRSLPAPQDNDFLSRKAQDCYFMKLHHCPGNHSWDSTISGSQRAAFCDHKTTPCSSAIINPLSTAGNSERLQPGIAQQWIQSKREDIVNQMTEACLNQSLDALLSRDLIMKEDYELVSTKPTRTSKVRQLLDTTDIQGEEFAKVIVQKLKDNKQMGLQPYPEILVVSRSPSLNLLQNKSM
Sequence of Vascular endothelial growth factor receptor 3 (Homo sapiens) (P35916 whole entry, the tested form may be a part): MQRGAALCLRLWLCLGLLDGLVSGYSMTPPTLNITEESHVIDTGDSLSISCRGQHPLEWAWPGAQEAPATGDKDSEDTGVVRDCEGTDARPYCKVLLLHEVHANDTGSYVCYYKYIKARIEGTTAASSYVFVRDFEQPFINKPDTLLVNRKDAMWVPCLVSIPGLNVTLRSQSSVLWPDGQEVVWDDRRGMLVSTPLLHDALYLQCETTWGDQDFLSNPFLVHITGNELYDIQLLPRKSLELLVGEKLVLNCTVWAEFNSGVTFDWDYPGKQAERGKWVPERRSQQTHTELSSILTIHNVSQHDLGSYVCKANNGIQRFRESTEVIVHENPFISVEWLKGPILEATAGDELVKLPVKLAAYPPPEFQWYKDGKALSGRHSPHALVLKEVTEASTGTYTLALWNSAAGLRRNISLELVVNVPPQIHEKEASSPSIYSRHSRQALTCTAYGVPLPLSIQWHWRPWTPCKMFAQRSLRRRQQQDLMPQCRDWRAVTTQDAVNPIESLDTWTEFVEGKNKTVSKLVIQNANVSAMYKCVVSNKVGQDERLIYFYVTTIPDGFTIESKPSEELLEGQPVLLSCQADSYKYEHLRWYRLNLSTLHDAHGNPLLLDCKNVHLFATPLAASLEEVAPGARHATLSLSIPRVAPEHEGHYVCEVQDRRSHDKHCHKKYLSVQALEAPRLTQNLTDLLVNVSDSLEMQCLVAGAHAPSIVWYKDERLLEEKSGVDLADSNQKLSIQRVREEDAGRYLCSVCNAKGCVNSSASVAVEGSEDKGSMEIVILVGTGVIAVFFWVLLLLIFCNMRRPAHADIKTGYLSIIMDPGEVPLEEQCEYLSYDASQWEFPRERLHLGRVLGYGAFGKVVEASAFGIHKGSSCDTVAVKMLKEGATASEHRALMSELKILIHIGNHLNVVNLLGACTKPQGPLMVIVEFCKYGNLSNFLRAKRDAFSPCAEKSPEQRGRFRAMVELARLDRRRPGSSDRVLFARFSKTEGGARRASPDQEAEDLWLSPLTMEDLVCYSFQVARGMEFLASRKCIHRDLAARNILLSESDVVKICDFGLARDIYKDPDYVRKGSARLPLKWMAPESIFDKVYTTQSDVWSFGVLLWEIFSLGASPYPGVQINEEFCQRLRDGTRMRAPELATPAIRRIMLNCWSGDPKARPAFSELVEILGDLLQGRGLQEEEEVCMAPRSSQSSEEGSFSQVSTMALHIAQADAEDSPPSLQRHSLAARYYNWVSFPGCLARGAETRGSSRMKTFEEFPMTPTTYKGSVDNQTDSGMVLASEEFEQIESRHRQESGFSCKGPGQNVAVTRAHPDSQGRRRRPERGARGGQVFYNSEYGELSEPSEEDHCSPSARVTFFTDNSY
Sequence of BDNF/NT-3 growth factors receptor (Homo sapiens) (Q16620 32-822 limits assumed): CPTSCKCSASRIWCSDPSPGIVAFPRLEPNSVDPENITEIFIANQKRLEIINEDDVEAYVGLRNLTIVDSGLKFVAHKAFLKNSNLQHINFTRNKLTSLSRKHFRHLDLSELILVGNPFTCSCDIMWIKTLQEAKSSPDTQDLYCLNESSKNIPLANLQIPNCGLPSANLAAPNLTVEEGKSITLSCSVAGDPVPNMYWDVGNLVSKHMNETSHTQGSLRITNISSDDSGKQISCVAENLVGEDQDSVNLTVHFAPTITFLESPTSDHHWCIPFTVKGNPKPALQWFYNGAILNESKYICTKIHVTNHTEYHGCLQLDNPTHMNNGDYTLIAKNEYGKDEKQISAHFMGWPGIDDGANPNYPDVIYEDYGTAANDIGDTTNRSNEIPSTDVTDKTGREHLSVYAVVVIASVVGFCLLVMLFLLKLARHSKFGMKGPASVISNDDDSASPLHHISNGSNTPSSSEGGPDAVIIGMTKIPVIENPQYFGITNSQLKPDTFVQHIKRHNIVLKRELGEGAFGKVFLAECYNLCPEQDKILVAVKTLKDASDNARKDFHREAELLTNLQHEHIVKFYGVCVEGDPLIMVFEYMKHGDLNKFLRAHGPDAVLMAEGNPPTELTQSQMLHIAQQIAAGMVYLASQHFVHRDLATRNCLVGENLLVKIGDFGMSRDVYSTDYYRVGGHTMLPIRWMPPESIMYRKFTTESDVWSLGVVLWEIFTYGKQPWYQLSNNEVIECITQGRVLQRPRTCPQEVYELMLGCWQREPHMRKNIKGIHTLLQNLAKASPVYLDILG
Sequence of Protein-tyrosine kinase 6 (Homo sapiens) (Q13882 whole entry, looked up, the tested form may be a part): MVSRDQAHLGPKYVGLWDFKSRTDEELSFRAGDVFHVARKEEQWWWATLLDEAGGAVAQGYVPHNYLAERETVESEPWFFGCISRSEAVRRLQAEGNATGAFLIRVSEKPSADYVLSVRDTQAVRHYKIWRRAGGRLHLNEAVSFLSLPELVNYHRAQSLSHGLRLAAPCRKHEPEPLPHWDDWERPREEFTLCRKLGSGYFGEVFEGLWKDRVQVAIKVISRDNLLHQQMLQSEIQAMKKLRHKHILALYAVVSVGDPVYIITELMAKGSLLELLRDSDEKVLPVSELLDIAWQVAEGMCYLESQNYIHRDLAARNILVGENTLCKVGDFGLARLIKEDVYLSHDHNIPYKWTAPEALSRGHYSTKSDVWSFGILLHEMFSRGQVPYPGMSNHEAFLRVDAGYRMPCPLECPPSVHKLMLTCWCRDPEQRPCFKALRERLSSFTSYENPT
Sequence of MAP kinase-interacting serine/threonine-protein kinase 2 (Homo sapiens) (Q9HBH9 whole entry, looked up, the tested form may be a part): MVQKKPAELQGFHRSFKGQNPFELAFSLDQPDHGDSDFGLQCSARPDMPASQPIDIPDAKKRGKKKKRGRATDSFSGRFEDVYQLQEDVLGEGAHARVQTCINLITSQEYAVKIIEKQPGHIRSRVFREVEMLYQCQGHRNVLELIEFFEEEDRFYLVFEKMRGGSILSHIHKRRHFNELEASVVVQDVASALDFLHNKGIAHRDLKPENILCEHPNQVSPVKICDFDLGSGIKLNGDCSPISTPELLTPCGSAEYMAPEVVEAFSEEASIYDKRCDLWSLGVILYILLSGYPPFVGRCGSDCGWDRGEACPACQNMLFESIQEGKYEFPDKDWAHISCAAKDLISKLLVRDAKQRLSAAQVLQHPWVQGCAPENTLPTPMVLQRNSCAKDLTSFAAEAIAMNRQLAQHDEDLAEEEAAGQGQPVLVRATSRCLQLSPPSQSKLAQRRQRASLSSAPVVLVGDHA

For `O=C(Nc1cccc([C@@H]2CN(c3ncnc4[nH]ccc34)CCN2CCO)c1)Nc1c(F)cccc1N1CCCC1`, the inhibition [1] was 89%, the inhibition [2] was 74% and the inhibition [3] was 8.7%. For the same compound, the inhibition [4] was 80%, the inhibition [5] was 74% and the inhibition [6] was 35%. For the same compound, the inhibition [7] was 93%, the inhibition [8] was 95% and the inhibition [9] was 83%. For the same compound, the inhibition [10] was 3.6%, the inhibition [11] was 71% and the inhibition [12] was 16%. The inhibition [13] was 100%, the inhibition [14] was 42% and the inhibition [15] was 92%. For the same compound, the inhibition [16] was 33%, the inhibition [17] was 100% and the inhibition [18] was 99%. It also gave an inhibition [19] of 80%.
In the case of `O=C(Nc1cccc([C@H]2CCCN(c3ncnc4[nH]ccc34)C2)c1)Nc1ccccc1N1CCCC1`, the inhibition [20] is reported as 0%, the inhibition [21] is reported as 85% and the inhibition [22] is reported as 69%. The inhibition [23] was 44%, the inhibition [24] was 34% and the inhibition [25] was 100%. The inhibition [26] was 100% and the inhibition [27] was 12%.
